Experimental data published in ChEMBL document CHEMBL5154725, “SAR evolution towards potent C-terminal carboxamide peptide inhibitors of Zika virus NS2B-NS3 protease” (Bioorg Med Chem, 2022).
Non-standard residues stand in square brackets, D forms with d. Residues, ends and D or L forms follow the SMILES beside them. *: point of attachment. Phe(4-CONH2) = NC(=O)c1ccc(C[C@H](N)C(=O)O)cc1; Phe(4-NH2) = Nc1ccc(C[C@H](N)C(=O)O)cc1; Hydrocinnamoyl = O=C(CCc1ccccc1)*; Cit = NC(=O)NCCC[C@H](N)C(=O)O; hLys = NCCCCC[C@H](N)C(=O)O; Orn = NCCC[C@H](N)C(=O)O; Dab = NCC[C@H](N)C(=O)O; PhAc = O=C(Cc1ccccc1)*; NHCH2CH2OH = OCCN*

Experiment: Inhibition of 6-His tagged-G4SG4 fused ZIKV NS2B (49 to 95 residues) R95A mutant-NS3 (1 to 170 residue) R29G mutant expressed in Escherichia coli BL21 (DE3) using Bz-Nle-K-RR-AMC substrate preincubated for 10 mins followed by substrate addition and measured after 30 mins by fluorescence assay
Set-up: species or system Zika virus

Compound | IC50 [nM]
NCCCC[C@H](NC(=O)Cc1ccccc1)C(=O)N[C@@H](CCCCN)C(=O)N[C@H](C(=O)NC1Cc2ccccc2C1)c1ccc(OCc2ccc(C(F)(F)F)cc2)cc1 | 2000
N=C(N)NCCC[C@H](NC(=O)c1cccs1)C(=O)N[C@@H](CCCCN)C(=O)N[C@H](C(N)=O)c1ccc(OCCN2CCCCC2)cc1 | 3000
N=C(N)NCCC[C@H](NC(=O)c1cccs1)C(=O)N[C@@H](CCCCN)C(=O)N[C@H](C(N)=O)c1ccc(OCc2ccccc2C(F)(F)F)cc1 | 7100
N=C(N)NCCC[C@H](NC(=O)[C@H](CCCCN)NC(=O)[C@H](CCCCN)NC(=O)Cc1ccncc1)C(N)=O | 5200
N=C(N)NCCC[C@H](NC(=O)[C@H](CCCCN)NC(=O)[C@H](CCCCN)NC(=O)Cc1nccs1)C(N)=O | 22700
CN(Cc1ccccc1)C(=O)[C@@H](NC(=O)[C@H](CCCCN)NC(=O)[C@H](CCCCN)NC(=O)Cc1ccccc1)c1ccc(OCc2ccc(C(F)(F)F)cc2)cc1 | 4700
NCCCC[C@H](NC(=O)Cc1ccccc1)C(=O)N[C@@H](CCCCN)C(=O)N[C@H](C(=O)NCc1ccc(Cl)cc1)c1ccc(OCc2ccc(C(F)(F)F)cc2)cc1 | 160
NCCCC[C@H](NC(=O)CC1CCCCC1)C(=O)N[C@@H](CCCCN)C(=O)N[C@H](C(=O)NCc1ccccc1)c1ccc(OCc2ccc(C(F)(F)F)cc2)cc1 | 150
N=C(N)NCCC[C@H](NC(=O)[C@H](CCCNC(N)=O)NC(=O)[C@H](CCCCN)NC(=O)Cc1ccccc1)C(N)=O (PhAc-Lys-[Cit]-Arg-NH2) | > 100000
NCCCCC(NC(=O)Cc1ccccc1)C(=O)N[C@@H](CCCCN)C(=O)NC(C(=O)NCc1ccccc1)c1ccc(OCc2ccc(C(F)(F)F)cc2)cc1 (single isomer, unassigned) | 1120
N=C(N)NCCC[C@H](NC(=O)c1cccs1)C(=O)N[C@@H](CCCCN)C(=O)N[C@H](C(=O)NCc1ccccc1)c1ccc(OCc2ccc(C(F)(F)F)cc2)cc1 | 310
N=C(N)NCCC[C@H](NC(=O)c1cccs1)C(=O)N[C@@H](CCCCN)C(=O)N[C@H](C(N)=O)c1ccc(OCCN2CCOCC2)cc1 | 22000
N=C(N)NCCC[C@H](NC(=O)[C@H](Cc1ccc(C(N)=O)cc1)NC(=O)[C@H](CCCCN)NC(=O)Cc1ccccc1)C(N)=O (PhAc-Lys-[Phe(4-CONH2)]-Arg-NH2) | > 100000
N=C(N)NCCC[C@H](NC(=O)c1cccs1)C(=O)N[C@@H](CCCCN)C(=O)N[C@H](C(N)=O)c1ccc(OCc2ccncc2)cc1 | 12100
NCCCC[C@H](NC(=O)Cc1ccc(Cl)c(Cl)c1)C(=O)N[C@@H](CCCCN)C(=O)N[C@H](C(=O)NCc1ccccc1)c1ccc(OCc2ccc(C(F)(F)F)cc2)cc1 | 170
NCCCC[C@H](NC(=O)Cc1ccccc1)C(=O)N[C@@H](CCCCN)C(=O)N[C@H](C(N)=O)c1ccccc1 | 7000
N=C(N)NCCC[C@H](NC(=O)c1cccs1)C(=O)N[C@@H](CCCCN)C(=O)N[C@H](C(N)=O)c1ccc(OCc2ccc(C(F)(F)F)cc2)cc1 | 2500
NCCCC[C@H](NC(=O)Cc1ccccc1)C(=O)N[C@@H](CCCCN)C(=O)N[C@H](C(=O)NCc1ccccc1)c1ccc(OCc2ccc(C(F)(F)F)cc2)cc1 | 90
CCOc1ccc([C@H](NC(=O)[C@H](CCCCN)NC(=O)[C@H](CCCNC(=N)N)NC(=O)c2cccs2)C(N)=O)cc1 | 17900
NCCCC[C@H](NC(=O)Cc1ccccc1)C(=O)N[C@@H](CCCCN)C(=O)N[C@H](C(=O)NCC1CCCCC1)c1ccc(OCc2ccc(C(F)(F)F)cc2)cc1 | 80

Compound | IC50 [nM]
N=C(N)NCCC[C@H](NC(=O)[C@H](CC1CCNCC1)NC(=O)[C@H](CCCCN)NC(=O)Cc1ccccc1)C(N)=O | 12200
NCCCC[C@H](NC(=O)Cc1ccncc1)C(=O)N[C@@H](CCCCN)C(=O)N[C@H](C(=O)NCc1ccccc1)c1ccc(OCc2ccc(C(F)(F)F)cc2)cc1 | 69
N=C(N)NCCC[C@H](NC(=O)Cc1ccccc1)C(=O)N[C@@H](CCCCN)C(=O)N[C@H](C(N)=O)c1ccc(OCc2ccc(C(F)(F)F)cc2)cc1 | 31800
NCCCC[C@H](NC(=O)c1cccs1)C(=O)N[C@@H](CCCCN)C(=O)N[C@H](C(=O)NCc1ccc(OCc2ccc(C(F)(F)F)cc2)cc1)c1ccccc1 | 200
NCCCC[C@H](NC(=O)Cc1ccccc1)C(=O)N[C@@H](CCCCN)C(=O)N[C@H](C(=O)NCc1cc(Cl)cc(Cl)c1)c1ccccc1 | 320
N=C(N)NCCC[C@H](NC(=O)[C@H](Cc1ccc(N)cc1)NC(=O)[C@H](CCCCN)NC(=O)Cc1ccccc1)C(N)=O (PhAc-Lys-[Phe(4-NH2)]-Arg-NH2) | > 100000
NCCCC[C@H](NC(=O)c1ccccc1)C(=O)N[C@@H](CCCCN)C(=O)N[C@H](C(=O)NCc1ccccc1)c1ccc(OCc2ccc(C(F)(F)F)cc2)cc1 | 90
N=C(N)NCCC[C@H](NC(=O)[C@H](CCCCN)NC(=O)[C@H](CCCCN)NC(=O)Cc1ccccc1)C(=O)NCc1cccnc1 | 10400
COc1ccc([C@H](NC(=O)[C@H](CCCCN)NC(=O)[C@H](CCCNC(=N)N)NC(=O)c2cccs2)C(N)=O)cc1 | 44300
N=C(N)NCCC[C@H](NC(=O)[C@H](CCN)NC(=O)[C@H](CCCCN)NC(=O)Cc1ccccc1)C(N)=O (PhAc-Lys-[Dab]-Arg-NH2) | 450
NCCCC[C@H](NC(=O)Cc1ccccc1)C(=O)N[C@@H](CCCCN)C(=O)N[C@H](C(=O)Nc1ccccc1)c1ccc(OCc2ccc(C(F)(F)F)cc2)cc1 | 3400
N=C(N)NCCC[C@H](NC(=O)[C@H](CCCCN)NC(=O)[C@H](CCCCN)NC(=O)Cc1ccccc1)C(=O)O (PhAc-Lys-Lys-Arg-OH) | 41000
N=C(N)NCCC[C@H](NC(=O)c1cccs1)C(=O)N[C@@H](CCCCN)C(=O)NC(C(N)=O)c1ccc(-c2ccc(C(F)(F)F)cc2)cc1 (mixture of isomers) | 6100
N=C(N)NCCC[C@H](NC(=O)c1cccs1)C(=O)N[C@@H](CCCCN)C(=O)N[C@H](C(N)=O)c1ccc(OCc2ccccc2)cc1 | 7600
NCCCC[C@H](NC(=O)Cc1ccccc1)C(=O)N[C@@H](CCCCN)C(=O)N[C@H](C(=O)NCc1ncco1)c1ccc(OCc2ccc(C(F)(F)F)cc2)cc1 | 1500
N=C(N)NCCC[C@H](NC(=O)[C@H](CCCCCN)NC(=O)[C@H](CCCCN)NC(=O)Cc1ccccc1)C(N)=O (PhAc-Lys-[hLys]-Arg-NH2) | 2700
N=C(N)NCCC[C@H](NC(=O)[C@H](CCCCN)NC(=O)[C@H](CCCCN)NC(=O)CCc1ccccc1)C(N)=O (Hydrocinnamoyl-Lys-Lys-Arg-NH2) | 9350
N=C(N)NCCC[C@H](NC(=O)c1cccs1)C(=O)N[C@@H](CCCCN)C(=O)N[C@@H](C(=O)NCc1ccccc1)c1ccc(OCc2ccc(C(F)(F)F)cc2)cc1 | 920
NCCCC[C@H](NC(=O)Cc1ccccc1)C(=O)N[C@@H](CCCCN)C(=O)N[C@H](C(=O)NCc1cccnc1)c1ccc(OCc2ccc(C(F)(F)F)cc2)cc1 | 280
NCCCC[C@H](NC(=O)Cc1ccccc1)C(=O)N[C@@H](CCCCN)C(=O)N[C@@H](C(=O)NCc1ccccc1)c1ccccc1 | 1900

Compound | IC50 [nM]
N=C(N)NCCC[C@H](NC(=O)[C@H](CCCCN)NC(=O)[C@H](Cc1cccc(CN)c1)NC(=O)Cc1ccccc1)C(N)=O | 37500
NCCCC[C@H](NC(=O)Cc1ccccc1)C(=O)N[C@@H](CCCCN)C(=O)N[C@H](C(=O)NCCc1ccccc1)c1ccc(OCc2ccc(C(F)(F)F)cc2)cc1 | 620
NCCCC[C@H](NC(=O)Cc1ccccc1)C(=O)N[C@@H](CCCCN)C(=O)N[C@H](C(=O)NCc1ccc(O)cc1)c1ccccc1 | 370
NCCCC[C@H](NC(=O)Cc1ccccc1)C(=O)N[C@@H](CCCCN)C(=O)N[C@H](C(=O)NCC1CCNCC1)c1ccc(OCc2ccc(C(F)(F)F)cc2)cc1 | 350
N=C(N)NCCC[C@H](NC(=O)[C@H](CCCCN)NC(=O)[C@H](CCCCN)NC(=O)Cc1ccccc1)C(=O)NCCO (PhAc-Lys-Lys-Arg-NHCH2CH2OH) | 10800
CN(C)CCOc1ccc([C@H](NC(=O)[C@H](CCCCN)NC(=O)[C@H](CCCNC(=N)N)NC(=O)c2cccs2)C(N)=O)cc1 | 5500
CC(=O)N[C@@H](CCCCN)C(=O)N[C@@H](CCCCN)C(=O)N[C@@H](CCCNC(=N)N)C(N)=O (Ac-Lys-Lys-Arg-NH2) | 8400
N=C(N)NCCC[C@H](NC(=O)c1cccs1)C(=O)N[C@@H](CCCCN)C(=O)N[C@H](C(N)=O)c1ccc(OCC2CCCCC2)cc1 | 10800
N=C(N)NCCC[C@H](NC(=O)[C@H](CCCCN)NC(=O)[C@H](CCCCN)NC(=O)Cc1ccc(Cl)c(Cl)c1)C(N)=O | 1230
NCCCC[C@H](NC(=O)Cc1ccccc1)C(=O)N[C@@H](CCCCN)C(=O)N[C@H](C(=O)NCc1ccc2c(c1)OCO2)c1ccc(OCc2ccc(C(F)(F)F)cc2)cc1 | 60
CN(C)Cc1ccc(CNC(=O)[C@H](CCCNC(=N)N)NC(=O)[C@H](CCCCN)NC(=O)[C@H](CCCCN)NC(=O)Cc2ccccc2)cc1 | 2800
N#Cc1ccc(COc2ccc([C@H](NC(=O)[C@H](CCCCN)NC(=O)[C@H](CCCNC(=N)N)NC(=O)c3cccs3)C(N)=O)cc2)cc1 | 27300
N=C(N)NCCC[C@H](NC(=O)c1cccs1)C(=O)N[C@@H](CCCCN)C(=O)N[C@H](C(N)=O)c1ccc(OC2CCc3ccccc32)cc1 (mixture of isomers) | 6400
NCCCC[C@H](NC(=O)Oc1ccccc1)C(=O)N[C@@H](CCCCN)C(=O)N[C@H](C(=O)NCc1ccccc1)c1ccc(OCc2ccc(C(F)(F)F)cc2)cc1 | 840
N=C(N)NCCC[C@H](NC(=O)c1cccs1)C(=O)N[C@@H](CCCCN)C(=O)N[C@@H](C(N)=O)c1ccc(OCc2ccc(C(F)(F)F)cc2)cc1 | 1600
N=C(N)NCCC[C@H](NC(=O)[C@H](CCCCN)NC(=O)[C@H](CCCCN)NC(=O)Cc1cccs1)C(N)=O | 16500
COc1ccc(CC(=O)N[C@@H](CCCCN)C(=O)N[C@@H](CCCCN)C(=O)N[C@H](C(=O)NCc2ccccc2)c2ccc(OCc3ccc(C(F)(F)F)cc3)cc2)cc1 | 270
N=C(N)NCCC[C@H](NC(=O)[C@H](CCCN)NC(=O)[C@H](CCCCN)NC(=O)Cc1ccccc1)C(N)=O (PhAc-Lys-[Orn]-Arg-NH2) | 3900
N=C(N)NCCC[C@H](NC(=O)c1cccs1)C(=O)N[C@@H](CCCCN)C(=O)NC(C(N)=O)c1cccc(OCc2ccc(C(F)(F)F)cc2)c1 (mixture of isomers) | 6400
